# Where “and” joins values, the source holds several entries; their conditions need not be identical. Equal values may be shown once.
# Test system: 947758-054-R-J2-PDC spheroid growth, percent test/control
# Test: Anticancer human tumor 947758-054-R-J2-PDC patient-derived colon adenocarcinoma cell line growth inhibition [CLK]
# Settings: spheroids with HUVEC and MSC; for viability, T/C: stronger effect = lower value
# Summary of the method: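 Patient-derived tumor cells grown as complex spheroids with HUVEC endothelial cells and mesenchymal stem cells, treated with drug combinations. Concentrations descend in half-log steps from near clinical Cmax, or from 10 microM if Cmax unknown.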
# [1] = curve of first compound, second compound 0.0316 µM
# [2] = curve of first compound, second compound 0.1 µM
# [3] = curve of first compound, second compound 0.316 µM
# [4] = curve of first compound, second compound 1 µM
# [5] = curve of first compound, second compound 3.16 µM
# [6] = curve of first compound, second compound 10 µM
# [7] = second compound 0.0316 µM, first compound 0.0316 µM
# [8] = second compound 0.0316 µM, first compound 0.1 µM
# [9] = second compound 0.0316 µM, first compound 0.316 µM
# [10] = second compound 0.0316 µM, first compound 1 µM
# [11] = second compound 0.1 µM, first compound 0.0316 µM
# [12] = second compound 0.1 µM, first compound 0.1 µM
# [13] = second compound 0.1 µM, first compound 0.316 µM
# [14] = second compound 0.1 µM, first compound 1 µM
# [15] = second compound 0.316 µM, first compound 0.0316 µM
# [16] = second compound 0.316 µM, first compound 0.1 µM
# [17] = second compound 0.316 µM, first compound 0.316 µM
# [18] = second compound 0.316 µM, first compound 1 µM
# [19] = second compound 1 µM, first compound 0.0316 µM
# [20] = second compound 1 µM, first compound 0.1 µM
# [21] = second compound 1 µM, first compound 0.316 µM
# [22] = second compound 1 µM, first compound 1 µM
# [23] = second compound 3.16 µM, first compound 0.0316 µM
# [24] = second compound 3.16 µM, first compound 0.1 µM
# [25] = second compound 3.16 µM, first compound 0.316 µM
# [26] = second compound 3.16 µM, first compound 1 µM
# [27] = second compound 10 µM, first compound 0.0316 µM
# [28] = second compound 10 µM, first compound 0.1 µM
# [29] = second compound 10 µM, first compound 0.316 µM
# [30] = second compound 10 µM, first compound 1 µM
# 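Further: spheroids exposed to compounds for one week before readout.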
# 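Wherever viability, T/C is given: 100% = DMSO vehicle control wells.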
structure (smiles),measurement,setting,value
COc1c(OCCCN2CCOCC2)ccc2c3n(c(=NC(=O)c4cnc(N)nc4)nc12)CCN3 + CN1CCN(c2cc(C(=O)Nc3cc4cc(-c5cnn(C)c5)ccc4cn3)ccn2)CC1,IC50,[1],184 nM
same,IC50,[2],29 nM
same,IC50,[3],< 3.16 nM
same,IC50,[4],< 3.16 nM
same,IC50,[5],< 3.16 nM
same,IC50,[6],< 3.16 nM
same,"viability, T/C","second compound 0.0316 µM, first compound 0.00316 µM",157%
same,"viability, T/C","second compound 0.0316 µM, first compound 0.01 µM",133%
same,"viability, T/C",[7],90.8%
same,"viability, T/C",[8],75.6%
same,"viability, T/C",[9],28.7%
same,"viability, T/C",[10],18.1%
same,"viability, T/C","second compound 0.1 µM, first compound 0.00316 µM",188%
same,"viability, T/C","second compound 0.1 µM, first compound 0.01 µM",147%
same,"viability, T/C",[11],40.3%
same,"viability, T/C",[12],33.4%
same,"viability, T/C",[13],17.9%
same,"viability, T/C",[14],10%
same,"viability, T/C","second compound 0.316 µM, first compound 0.00316 µM",7.04%
same,"viability, T/C","second compound 0.316 µM, first compound 0.01 µM",6.09%
same,"viability, T/C",[15],3.95%
same,"viability, T/C",[16],2.44%
same,"viability, T/C",[17],0.75%
same,"viability, T/C",[18],1%
same,"viability, T/C","second compound 1 µM, first compound 0.00316 µM",0.16%
same,"viability, T/C","second compound 1 µM, first compound 0.01 µM",0.18%
same,"viability, T/C",[19],0.15%
same,"viability, T/C",[20],0.1%
same,"viability, T/C",[21],1.96%
same,"viability, T/C",[22],1.55%
same,"viability, T/C","second compound 3.16 µM, first compound 0.00316 µM",0.48%
same,"viability, T/C","second compound 3.16 µM, first compound 0.01 µM",0.95%
same,"viability, T/C",[23],0.19%
same,"viability, T/C",[24],0.15%
same,"viability, T/C",[25],1.63%
same,"viability, T/C",[26],2.02%
same,"viability, T/C","second compound 10 µM, first compound 0.00316 µM",0.31%
same,"viability, T/C","second compound 10 µM, first compound 0.01 µM",3.4%
same,"viability, T/C",[27],0.32%
same,"viability, T/C",[28],0.27%
same,"viability, T/C",[29],1.44%
same,"viability, T/C",[30],1.28%
Nc1ccn(C2OC(CO)C(O)C2(F)F)c(=O)n1 (stereo not drawn) + CN1CCN(c2cc(C(=O)Nc3cc4cc(-c5cnn(C)c5)ccc4cn3)ccn2)CC1,IC50,[1],33.1 nM
same,IC50,[2],< 31.6 nM
same,IC50,[3],< 31.6 nM
same,IC50,[4],< 31.6 nM
same,IC50,[5],< 31.6 nM
same,IC50,[6],< 31.6 nM
same,"viability, T/C",[7],51.6%
same,"viability, T/C",[8],9.51%
same,"viability, T/C",[9],11.7%
same,"viability, T/C",[10],13.8%
same,"viability, T/C","second compound 0.0316 µM, first compound 3.16 µM",10.8%
same,"viability, T/C","second compound 0.0316 µM, first compound 10 µM",6.34%
same,"viability, T/C",[11],20.8%
same,"viability, T/C",[12],6.62%
same,"viability, T/C",[13],10.4%
same,"viability, T/C",[14],10.6%
same,"viability, T/C","second compound 0.1 µM, first compound 3.16 µM",7.69%
same,"viability, T/C","second compound 0.1 µM, first compound 10 µM",7.26%
same,"viability, T/C",[15],2.49%
same,"viability, T/C",[16],1.07%
same,"viability, T/C",[17],1.17%
same,"viability, T/C",[18],0.85%
same,"viability, T/C","second compound 0.316 µM, first compound 3.16 µM",0.53%
same,"viability, T/C","second compound 0.316 µM, first compound 10 µM",3.53%
same,"viability, T/C",[19],0.13%
same,"viability, T/C",[20],0.13%
same,"viability, T/C",[21],2.17%
same,"viability, T/C",[22],0.08%
same,"viability, T/C","second compound 1 µM, first compound 3.16 µM",0.45%
same,"viability, T/C","second compound 1 µM, first compound 10 µM",0.11%
same,"viability, T/C",[23],1.66%
same,"viability, T/C",[24],0.22%
same,"viability, T/C",[25],0.38%
same,"viability, T/C",[26],0.21%
same,"viability, T/C","second compound 3.16 µM, first compound 3.16 µM",0.27%
same,"viability, T/C","second compound 3.16 µM, first compound 10 µM",0.3%
same,"viability, T/C",[27],0.27%
same,"viability, T/C",[28],0.28%
same,"viability, T/C",[29],0.31%
same,"viability, T/C",[30],0.32%
same,"viability, T/C","second compound 10 µM, first compound 3.16 µM",1.07%
same,"viability, T/C","second compound 10 µM, first compound 10 µM",0.35%
Cn1ncnc1[C@H]1c2n[nH]c(=O)c3cc(F)cc(c23)N[C@@H]1c1ccc(F)cc1,"viability, T/C",compound 0.000316 µM,90.1% and 87.9%
same,"viability, T/C",compound 0.001 µM,103% and 93.8%
same,"viability, T/C",compound 0.00316 µM,96.8% and 101%
same,"viability, T/C",compound 0.01 µM,96.7% and 94.4%
same,"viability, T/C",compound 0.0316 µM,117% and 87.6%
same,"viability, T/C",compound 0.1 µM,130% and 119%
same,IC50,curve of compound,> 100 nM
CC(=O)O[C@H]1C(=O)[C@@]2(C)[C@H]([C@H](OC(=O)c3ccccc3)[C@]3(O)C[C@H](OC(=O)[C@H](O)[C@@H](NC(=O)c4ccccc4)c4ccccc4)C(C)=C1C3(C)C)[C@]1(OC(C)=O)CO[C@@H]1C[C@@H]2O,"viability, T/C",compound 0.0316 µM,7.6% and 8.82%
same,"viability, T/C",compound 0.1 µM,6.29% and 6.22%
same,"viability, T/C",compound 0.316 µM,5.41% and 6.88%
same,"viability, T/C",compound 1 µM,5.07% and 6.19%
same,"viability, T/C",compound 3.16 µM,6.6% and 8.41%
same,"viability, T/C",compound 10 µM,11.7% and 13.7%
same,IC50,curve of compound,< 31.6 nM
